From patent publication US4916152A, “Pyrrolidine derivatives as antiasthmatics” (Fujisawa Pharmaceutical Co., Ltd., priority 1987, dated 1990) come the findings set out here.

Assay [1] has as its system 9,11-azo PGH2 induced aggregation of rabbit platelet. The experiment in a line: Effect on 9,11-azo PGH2 induced aggregation of rabbit platelet in vitro. The conditions noted are these: Oryctolagus cuniculus; rabbit platelet rich plasma, in vitro, 9,11-azo PGH2 (final 1.0 μM), 37° C.; read-out: IC50 (Inhibition concentration of platelet aggregation by 50%). In kind it is cell-based. From the text: (§1) In the following tests, the used 9, 11-azo PGH2 and 9,11-methanoepoxy PGH2 (U46619) are characterized pharmacologically as TXA2 mimetic agents and widely used for evaluating TXA2 antagonism of test compounds (for example, vide The Journal of Pharmacology and Experimental Therapeutics Vol. 234, pp 435-441).
Test 1 (Effect on 9,11-azo PGH2 induced aggregation of rabbit platelet in vitro) (a) Test method
In the in vitro experiments, the blood was collected from the carotid artery of rabbits into plastic vessels containing 0.1 volume of 3.8% aqueous sodium citrate. Platelet rich plasma (PRP) was prepared by centrifugation at 150 g for 15 minutes. Platelet aggregation was investigated using the turbidometric method with an aggregometer (NKK HEMATRACER 1). To the 225 μl of PRP, 25 μl of test compound solution was added, and then stirred at 1000 rpm for 2 minutes at 37° C. To the solution, 5 μl of 9,11-azo PGH2 (final 1.0 μM) was added as an aggregating inducer. IC50 (Inhibition concentration of platelet aggregation by 50%) were graphically determined.

The test system of assay [2] is 9,11-methanoepoxy PGH2 induced platelet aggregation. Put plainly: Effect on 9,11-methanoepoxy PGH2 (U46619) induced platelet aggregation ex vivo. The format is in vivo, male Hartley strain guinea-pigs. The conditions noted are these: Cavia porcellus, guinea-pig, oral administration 0.032 mg/kg, 1 hour before blood collection, U46619 0.5 μM.
Source text: as §1
Test 2. (Effect on 9,11-methanoepoxy PGH2 induced platelet aggregation ex vivo)
In the ex vivo experiments, male Hartley strain guinea-pigs weighing about 300 g were used after overnight fasting. Animals received an oral administration of test compound (0.032 mg/kg) or vehicle 1 hour before the blood collection from abdominal artery PRP was prepared as described above, and platelet aggregation was induced by adding 5 μl of 9,11-methanoepoxy PGH2 (U46619, 0.5 μM) to 250 μl of PRP.

SMILES strings stand for the structures. Structures can show the parent of a compound that is named as a salt.

The inhibition is the drop in the measured response relative to a control, in per cent. A low value points to a response near the control. For the compound `O=C(O)CCCC=C[C@@H]1C[C@@H](NS(=O)(=O)c2ccc(Cl)cc2)CN1S(=O)(=O)c1ccc(Cl)cc1` [Test compound (1), Sodium salt of (2S,4R)-2-[(E and Z)-5-carboxy-1-pentenyl]-1-(4-chlorophenylsulfonyl)-4-(4-chlorophenylsulfonylamino)pyrrolidine], the IC50 in assay [1] is 85 nM. Further, at 0.032 mg/kg the inhibition in assay [2] was 94.2%.
The matching figures for `O=C(O)CCC/C=C\[C@@H]1C[C@@H](NS(=O)(=O)c2ccc(Cl)cc2)CN1S(=O)(=O)c1ccc(Cl)cc1` [Test compound (2), (2S,4R)-2-[(Z)-5-Carboxy-1-pentenyl]-1-(4-chlorophenylsulfonyl)-4-(4-chlorophenylsulfonylamino)pyrrolidine]: 55 nM and 100%.
